Assay results taken from ChEMBL document CHEMBL1139461, “Synthesis and characterization of the novel fluorescent prolyl oligopeptidase inhibitor 4-fluoresceinthiocarbamoyl-6-aminocaproyl-L-prolyl-2(S)-(hydroxyacetyl)pyrrolidine” (J Med Chem, 2005).

Biological target: Prolyl endopeptidase (Sus scrofa, UniProt P23687)
Test: Inhibition of pig brain POP

Prolyl endopeptidase, sequence (P23687 whole entry): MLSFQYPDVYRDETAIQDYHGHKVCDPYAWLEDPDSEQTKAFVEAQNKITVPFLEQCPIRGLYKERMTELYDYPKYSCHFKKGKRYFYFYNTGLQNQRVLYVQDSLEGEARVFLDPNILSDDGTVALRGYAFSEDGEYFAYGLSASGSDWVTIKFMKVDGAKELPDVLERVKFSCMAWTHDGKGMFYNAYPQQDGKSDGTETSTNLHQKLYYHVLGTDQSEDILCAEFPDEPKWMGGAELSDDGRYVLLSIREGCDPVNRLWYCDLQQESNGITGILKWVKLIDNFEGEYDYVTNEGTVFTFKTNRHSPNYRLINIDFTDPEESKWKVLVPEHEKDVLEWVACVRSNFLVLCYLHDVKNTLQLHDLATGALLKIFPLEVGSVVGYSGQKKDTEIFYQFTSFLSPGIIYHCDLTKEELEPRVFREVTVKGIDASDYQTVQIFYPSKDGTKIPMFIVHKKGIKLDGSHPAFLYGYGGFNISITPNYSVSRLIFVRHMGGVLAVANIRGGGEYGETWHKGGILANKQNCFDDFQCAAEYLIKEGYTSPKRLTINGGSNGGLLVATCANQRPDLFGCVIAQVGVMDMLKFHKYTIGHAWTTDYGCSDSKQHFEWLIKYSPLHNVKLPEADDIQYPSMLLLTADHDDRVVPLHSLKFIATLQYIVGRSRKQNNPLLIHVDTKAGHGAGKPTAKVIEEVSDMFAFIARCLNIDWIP

Row | Compound | IC50
1 | O=C1OC2(c3ccc(O)cc3Oc3cc(O)ccc32)c2ccc(NC(=S)NCC(=O)N3CCC[C@H]3C(=O)N3CCC[C@H]3C(=O)CO)cc21 | 180 nM
2 | O=C1OC2(c3ccc(O)cc3Oc3cc(O)ccc32)c2ccc(NC(=S)NCCCCCC(=O)N3CCC[C@H]3C(=O)N3CCC[C@H]3C(=O)CO)cc21 | 0.83 nM
